# Laboratory results published in ChEMBL document CHEMBL1201862, “PubChem BioAssay data set” (2004).
# Active and inactive are the calls of the source.
# Experiments:
# [1] = biological target: Melanin-concentrating hormone receptor 1 (Homo sapiens, UniProt Q99705); assay: Fluorescence-based counterscreen for antagonists of the G-protein coupled receptor 7 (GPR7): cell-based high throughput dose response assay to identify antagonists of the melanin-concentrating hormone receptor 1 (MCHR1).; type: functional
# Sequence of Melanin-concentrating hormone receptor 1 (Q99705 whole entry): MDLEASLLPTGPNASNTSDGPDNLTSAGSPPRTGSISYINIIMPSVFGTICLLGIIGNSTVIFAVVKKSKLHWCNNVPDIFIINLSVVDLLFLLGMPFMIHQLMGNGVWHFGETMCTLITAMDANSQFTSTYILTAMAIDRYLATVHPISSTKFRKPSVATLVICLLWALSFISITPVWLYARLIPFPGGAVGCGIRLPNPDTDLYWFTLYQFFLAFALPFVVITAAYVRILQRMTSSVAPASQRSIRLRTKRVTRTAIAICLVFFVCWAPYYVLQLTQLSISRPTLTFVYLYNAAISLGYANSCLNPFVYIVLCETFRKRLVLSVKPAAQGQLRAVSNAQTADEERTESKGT
# [2] = biological target: Cytochrome P450 2D6 (Homo sapiens, UniProt P10635);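 note: CYP2D6 member of a cytochrome P450 panel assay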
# Sequence of Cytochrome P450 2D6 (P10635 whole entry): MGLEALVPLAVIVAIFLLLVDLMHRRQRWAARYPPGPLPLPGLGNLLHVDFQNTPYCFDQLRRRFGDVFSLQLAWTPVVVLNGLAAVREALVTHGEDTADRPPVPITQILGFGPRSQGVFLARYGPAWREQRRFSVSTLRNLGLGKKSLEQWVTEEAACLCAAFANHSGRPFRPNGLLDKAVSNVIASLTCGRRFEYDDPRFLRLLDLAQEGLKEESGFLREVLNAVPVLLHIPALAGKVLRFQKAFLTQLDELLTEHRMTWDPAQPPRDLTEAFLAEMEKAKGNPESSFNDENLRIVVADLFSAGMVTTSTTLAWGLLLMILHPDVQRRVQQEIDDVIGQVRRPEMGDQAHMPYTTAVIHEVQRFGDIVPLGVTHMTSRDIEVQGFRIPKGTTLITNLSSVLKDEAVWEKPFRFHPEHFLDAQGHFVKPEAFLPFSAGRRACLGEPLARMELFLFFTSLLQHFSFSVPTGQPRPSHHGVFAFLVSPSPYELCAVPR
# [3] = biological target: T1, Eukaryotic translation initiation factor 2-alpha kinase 3 (Homo sapiens, UniProt Q9NZJ5); assay: Dose response cell-based high-throughput screening assay to measure PERK inhibition. [Related pubchem assays: 1416 ]; type: functional
# T1 sequence (Q9NZJ5 whole entry): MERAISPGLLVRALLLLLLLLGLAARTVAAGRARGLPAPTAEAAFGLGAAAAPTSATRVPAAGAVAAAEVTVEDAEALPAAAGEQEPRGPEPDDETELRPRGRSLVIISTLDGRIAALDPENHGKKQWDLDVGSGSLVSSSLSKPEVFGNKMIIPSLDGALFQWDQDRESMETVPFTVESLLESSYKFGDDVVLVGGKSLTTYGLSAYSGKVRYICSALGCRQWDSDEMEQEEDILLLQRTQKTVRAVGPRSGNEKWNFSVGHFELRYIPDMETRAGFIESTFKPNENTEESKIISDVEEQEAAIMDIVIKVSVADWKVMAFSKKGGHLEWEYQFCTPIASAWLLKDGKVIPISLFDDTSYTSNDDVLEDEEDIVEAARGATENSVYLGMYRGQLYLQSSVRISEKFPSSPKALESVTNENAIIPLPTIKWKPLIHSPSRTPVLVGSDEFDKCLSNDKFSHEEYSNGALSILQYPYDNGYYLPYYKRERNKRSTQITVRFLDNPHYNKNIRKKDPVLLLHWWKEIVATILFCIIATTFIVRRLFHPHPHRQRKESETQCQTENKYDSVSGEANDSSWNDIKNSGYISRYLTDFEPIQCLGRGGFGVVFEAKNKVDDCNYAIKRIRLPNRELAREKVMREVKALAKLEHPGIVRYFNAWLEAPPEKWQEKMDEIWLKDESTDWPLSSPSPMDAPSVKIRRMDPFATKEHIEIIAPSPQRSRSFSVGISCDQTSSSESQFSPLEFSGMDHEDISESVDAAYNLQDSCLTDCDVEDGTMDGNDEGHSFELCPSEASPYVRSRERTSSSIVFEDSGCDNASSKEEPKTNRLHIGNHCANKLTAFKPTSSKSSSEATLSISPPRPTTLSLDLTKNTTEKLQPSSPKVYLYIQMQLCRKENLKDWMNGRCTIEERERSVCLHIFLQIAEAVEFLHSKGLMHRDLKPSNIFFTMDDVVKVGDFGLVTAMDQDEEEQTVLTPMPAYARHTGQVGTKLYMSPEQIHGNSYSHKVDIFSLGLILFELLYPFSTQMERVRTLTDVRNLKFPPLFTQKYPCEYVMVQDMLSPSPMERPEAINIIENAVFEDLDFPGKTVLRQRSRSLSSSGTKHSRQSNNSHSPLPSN
# [4] = biological target: T1, Eukaryotic translation initiation factor 2-alpha kinase 3; assay: Counterscreen assay for PERK inhibitors: Dose response cell-based high throughput screening assay to measure inhibition of PERK at 6 hours. [Related pubchem assays: 1522, 1416 ]; type: functional
# [5] = MC4R antagonists, dose response, counter-screen for LGR2 antagonist project, cell-based, plate reader, cherry pick (AID 743444); type: functional;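 note: transfected HEK 293 cells stimulated with alpha-MSH peptide; potency of inhibitors of the alpha-MSH evoked signal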
# [6] = LGR2 antagonists, dose response, cell-based, HEK293, CRE-luciferase reporter, cherry pick, set 2 (AID 743343); type: functional;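 note: transfected cells were stimulated with diluted bursicon conditioned medium after compound addition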
# [7] = Luminescence-based counterscreen assay for KLF5 inhibitors: dose response cell-based high throughput screening assay to identify cytotoxic compounds using the IEC-6 intestinal epithelial cell line. [Related pubchem assays: 1700 (Primary screen.), 1834 (Confirmation screen.), 1858 (Summary AID.), 1905 (Counterscreen.)]; type: functional
# [8] = HepG2 cell cytotoxicity, dose response, cytotoxicity control, plate reader, cherry-pick, antagonist series (AID 743416); type: functional, cell-based
# [9] = A549 cell cytotoxicity, dose response, cytotoxicity control, plate reader, cherry-pick, antagonist series (AID 743412); type: functional, cell-based
# [10] = system: HEK293; assay: Fluorescence-based counterscreen for potentiators or agonists of NPY-Y2: cell-based high-throughput dose response assay to identify inhibitors of cyclic nucleotide gated ion channel (CNGC) activity. In this assay, the parental HEK293 cell line transfected with a cyclic-nucleotide gated ion channel (CNGC)-based cAMP sensor is used to measure inhibition of isoproterenol-induced CNGC activity by test compound.; type: functional; conditions: Homo sapiens;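 note: stimulus is 1 µM isoproterenol at EC100 plus PDE inhibitor Ro 20-1724 at 25 µM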
# [11] = biological target: T2, Neuropeptide Y receptor type 1 (Homo sapiens, UniProt P25929); assay: Fluorescence-based counterscreen for agonists of NPY-Y2: cell-based high-throughput dose response assay for agonists of NPY-Y1.; type: functional
# T2 sequence (P25929 whole entry): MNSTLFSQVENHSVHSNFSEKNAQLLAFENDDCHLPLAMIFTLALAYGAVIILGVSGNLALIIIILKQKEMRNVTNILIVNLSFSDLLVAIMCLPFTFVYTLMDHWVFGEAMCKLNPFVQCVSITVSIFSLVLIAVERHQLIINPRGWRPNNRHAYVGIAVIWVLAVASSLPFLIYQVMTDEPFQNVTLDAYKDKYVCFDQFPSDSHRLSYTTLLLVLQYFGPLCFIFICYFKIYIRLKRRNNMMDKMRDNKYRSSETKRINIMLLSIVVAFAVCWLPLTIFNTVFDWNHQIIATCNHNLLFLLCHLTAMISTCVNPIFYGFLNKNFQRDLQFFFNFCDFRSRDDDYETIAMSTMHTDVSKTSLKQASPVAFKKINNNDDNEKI
# [12] = biological target: T3, Neuropeptide Y receptor type 2 (Homo sapiens, UniProt P49146); assay: Fluorescence-based cell-based high-throughput dose response assay for agonists of NPY-Y2. [Related pubchem assays: 1703 (Screening assay (CNGC inhibitors).), 1359 (Screening assay (NPY-Y2 potentiators or agonists).), 1304 (Screening assay (NPY-Y1 potentiators or agonists).), 1710 (Screening assay (NPY-Y2 agonists).), 1791 (Summary AID.)]; type: functional
# T3 sequence (P49146 whole entry): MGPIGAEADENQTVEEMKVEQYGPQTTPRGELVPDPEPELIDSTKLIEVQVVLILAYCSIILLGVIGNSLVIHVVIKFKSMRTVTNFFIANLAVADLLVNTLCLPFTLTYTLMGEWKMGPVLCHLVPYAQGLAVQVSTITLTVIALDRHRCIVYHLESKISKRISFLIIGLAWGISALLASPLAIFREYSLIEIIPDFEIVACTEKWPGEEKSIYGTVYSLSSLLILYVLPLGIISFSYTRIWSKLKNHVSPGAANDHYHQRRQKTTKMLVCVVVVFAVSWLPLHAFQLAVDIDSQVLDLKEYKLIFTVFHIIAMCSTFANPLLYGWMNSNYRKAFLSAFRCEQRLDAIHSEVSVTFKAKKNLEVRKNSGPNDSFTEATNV
# [13] = biological target: Transitional endoplasmic reticulum ATPase (Homo sapiens, UniProt P55072, C522A); assay: C522A mutant p97 ATPase inhibitors, dose response, counter-screen for p97 inhibitor project, biochemical, luminescence (AID 1544)
# Sequence of Transitional endoplasmic reticulum ATPase (Homo sapiens, UniProt P55072, C522A) (P55072 2-806 C522A limits assumed): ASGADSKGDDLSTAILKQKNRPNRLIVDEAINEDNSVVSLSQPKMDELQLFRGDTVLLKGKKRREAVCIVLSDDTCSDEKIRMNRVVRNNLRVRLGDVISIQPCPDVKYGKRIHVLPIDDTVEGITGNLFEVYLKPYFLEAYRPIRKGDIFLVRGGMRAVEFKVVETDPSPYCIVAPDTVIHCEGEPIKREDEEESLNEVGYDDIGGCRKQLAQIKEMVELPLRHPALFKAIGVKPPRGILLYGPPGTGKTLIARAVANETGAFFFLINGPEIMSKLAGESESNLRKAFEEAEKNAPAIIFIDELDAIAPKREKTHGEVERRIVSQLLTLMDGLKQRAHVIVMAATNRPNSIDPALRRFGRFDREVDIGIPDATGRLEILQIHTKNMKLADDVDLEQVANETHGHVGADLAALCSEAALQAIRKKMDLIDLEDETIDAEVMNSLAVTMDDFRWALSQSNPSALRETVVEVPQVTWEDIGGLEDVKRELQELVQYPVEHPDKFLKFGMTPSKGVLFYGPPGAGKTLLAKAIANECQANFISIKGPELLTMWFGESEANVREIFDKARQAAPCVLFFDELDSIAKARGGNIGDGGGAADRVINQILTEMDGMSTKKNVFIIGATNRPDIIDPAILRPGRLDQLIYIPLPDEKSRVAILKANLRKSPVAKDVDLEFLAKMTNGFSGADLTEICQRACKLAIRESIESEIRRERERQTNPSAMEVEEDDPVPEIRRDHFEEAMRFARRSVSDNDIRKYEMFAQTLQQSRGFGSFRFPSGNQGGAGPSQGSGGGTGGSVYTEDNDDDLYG
# [14] = biological target: Transitional endoplasmic reticulum ATPase (Homo sapiens, UniProt P55072); assay: p97 ATPase inhibitors, dose response, biochemical (AID 1534)
# Sequence of Transitional endoplasmic reticulum ATPase (Homo sapiens, UniProt P55072) (P55072 whole entry): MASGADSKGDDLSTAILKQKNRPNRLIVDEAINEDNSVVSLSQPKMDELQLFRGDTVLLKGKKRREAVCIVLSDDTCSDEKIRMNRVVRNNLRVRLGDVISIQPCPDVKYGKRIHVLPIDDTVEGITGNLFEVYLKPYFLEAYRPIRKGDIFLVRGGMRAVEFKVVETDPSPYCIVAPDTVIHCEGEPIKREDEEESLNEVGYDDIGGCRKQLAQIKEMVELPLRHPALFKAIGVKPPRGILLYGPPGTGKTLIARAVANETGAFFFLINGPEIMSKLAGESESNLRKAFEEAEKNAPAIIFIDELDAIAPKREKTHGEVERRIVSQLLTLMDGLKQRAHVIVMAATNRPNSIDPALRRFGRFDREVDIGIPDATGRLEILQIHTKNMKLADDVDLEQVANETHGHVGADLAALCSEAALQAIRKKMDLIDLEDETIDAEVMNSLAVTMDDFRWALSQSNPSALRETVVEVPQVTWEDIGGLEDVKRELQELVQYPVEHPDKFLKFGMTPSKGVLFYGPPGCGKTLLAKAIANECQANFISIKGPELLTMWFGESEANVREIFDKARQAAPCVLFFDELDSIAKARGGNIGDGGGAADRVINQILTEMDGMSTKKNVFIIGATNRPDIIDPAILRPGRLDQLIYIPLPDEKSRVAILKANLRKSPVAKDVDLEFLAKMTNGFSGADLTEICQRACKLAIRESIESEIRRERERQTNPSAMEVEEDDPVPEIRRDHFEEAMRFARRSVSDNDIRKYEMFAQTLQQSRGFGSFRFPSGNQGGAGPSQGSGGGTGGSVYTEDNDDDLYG
smiles,measurement,setting,value
COC(=O)[C@@]1(Cc2ccc(F)cc2)[C@H]2c3cc(C(=O)N(C)C)n(Cc4ccccc4)c3C[C@H]2CN1C(=O)c1ccccc1,IC50,[1],11.1 µM (not active)
same,AC50,[2],20 µM (inconclusive)
CCN1CC(=O)Nc2cc(S(=O)(=O)N3CCOCC3)ccc21,EC50,[3],> 55.7 µM (not active)
same,EC50,[4],> 55.7 µM (not active)
COc1ccc(Cl)cc1C(=O)Nc1nc2ccccc2[nH]1,AC50,[5],2.46 µM (active)
same,AC50,[6],2.05 µM (active)
same,IC50,[7],> 39.8 µM (not active)
same,AC50,[8],> 52 µM (inactive)
same,AC50,[9],> 52 µM (inactive)
CC1=NC(=O)C(N=Nc2ccccc2C(=O)O)N1c1ccccc1 (centres undefined),EC50,[10],> 3.94 µM (active)
same,EC50,[11],9.92 µM (active)
same,EC50,[12],16.9 µM (not active)
COc1ccc2ccccc2c1/C=N/NC(=O)c1sc(N)c(C#N)c1C,IC50,[13],> 50 µM (not active)
same,IC50,[14],2.58 µM (active)
